Consider five compounds from US7588913B2, “Process for the preparation of cephradine” (DSM IP Assets B.V., priority 2003, dated 2009).

Series [1] can be described thus: Stress stability test 2 (3 hrs at 100° C., A450). The following applies: for A450 after stress stability test (3 h, 100° C.): crystallisation pH 4.80, hydrate. The series is classed as physicochemical. As to the method:
(§1) The coloration of cephradine hydrate was determined by the absorbance at 450 nm. The absorbance and stress stability of the cephradine hydrate prepared as described above were determined. • 1. Absorbance
(§2) 1 g of cephradine hydrate was dissolved in 10 ml 10% aqueous sodium carbonate solution. The absorbance was determined at 450 nm (=A450) on a Perkin Elmer 550 S spectrophotometer, with 10% aqueous sodium carbonate solution as a reference solution at room temperature. • 2. Stress Stability Test 1.
Cephradine hydrate prepared enzymatically according to Example III and crystallised at different temperatures as indicated in Table 3 was maintained during 3 hrs at 100° C. The A450 of the cephradine crystals thus treated was determined as described above.

Series [2] is described as follows: Coloration of cephradine hydrate: absorbance at 450 nm. The settings on record: before stress stability test, crystallisation pH 4.80. It counts as physicochemical. Here is the method:
The coloration of cephradine hydrate was determined by the absorbance at 450 nm. The absorbance and stress stability of the cephradine hydrate prepared as described above were determined. • 1. Absorbance 1 g of cephradine hydrate was dissolved in 10 ml 10% aqueous sodium carbonate solution. The absorbance was determined at 450 nm (=A450) on a Perkin Elmer 550 S spectrophotometer, with 10% aqueous sodium carbonate solution as a reference solution at room temperature. • 2. Stress Stability Test 1.

Series [3] is classed as physicochemical. Here is the method:
as §1, §2
Cephradine hydrate prepared enzymatically according to Example III and chemically according to Reference Experiment B) was kept at 40° C. at a relative humidity of 75%. After 0, 2, 4, 6 8, 10 and 12 weeks the absorbance at 450 nm was determined as described above.

Where two headings read alike, the source gives them in different places.

For `CC1=C(C(=O)O)N2C(=O)[C@@H](NC(=O)[C@H](N)C3=CCC=CC3)[C@H]2SC1` [IV, cephradine hydrate], the “A450 after stress stability test (3 h, 100° C.)” value (“A450 after stress stability test” for short) in series [1] turned out to be 0.301. Also, the “A450 at t = 0” value in series [2] was determined as 0.051.

Regarding `CC1=C(C(=O)O)N2C(=O)[C@@H](NC(=O)[C@H](N)C3=CCC=CC3)[C@H]2SC1` [VII, cephradine hydrate], the “A450 after stress stability test” value in series [1] stood at 0.330. In series [2], the “A450 at t = 0” value was 0.017.

For `CC1=C(C(=O)O)N2C(=O)[C@@H](NC(=O)[C@H](N)C3=CCC=CC3)[C@H]2SC1` [Cephradine prepared chemically, cephradine hydrate], the “A450 (color stability)” value amounted to 0.028 in series [3] (0 weeks); 0.065 in series [3] (2 weeks); 0.077 in series [3] (4 weeks); 0.161 in series [3] (6 weeks); 0.142 in series [3] (8 weeks); 0.211 in series [3] (10 weeks).

For the compound `CC1=C(C(=O)O)N2C(=O)[C@@H](NC(=O)[C@H](N)C3=CCC=CC3)[C@H]2SC1` [VI, cephradine hydrate], in series [1], the “A450 after stress stability test” value turned out to be 0.291. Also, the “A450 at t = 0” value in series [2] is reported as 0.021.

In the case of `CC1=C(C(=O)O)N2C(=O)[C@@H](NC(=O)[C@H](N)C3=CCC=CC3)[C@H]2SC1` [V, cephradine hydrate], in series [1], the “Color stability of cephradine crystals versus crystallization temperature” value is given as “superior values” and the “A450 after stress stability test” value was 0.056. Besides, the “A450 at t = 0” value in series [2] amounted to 0.018.
